Results from patent publication US20250280696A1, “FORMULATIONS AND USES THEREOF IN OPTOELECTRONIC FIELD” (Zhejiang Brilliant Optoelectronic Technology Co.,Ltd., priority 2022, published 2025).

Legend:
Type in all cases: physicochemical
[1] = Absorption spectrum, emission spectrum and extinction coefficient in toluene solution; details: for Molar extinction coefficient of the toluene solution: at maximum absorption peak
Method: The extinction coefficients of the compounds and their absorption and emission spectrums in the solution were determined as follows: • 1. The compound with a certain amount of substance concentration in the toluene was prepared in a volumetric flask. • 2. The absorption spectrum of the solution was measured by using an ultraviolet-visible spectrophotometer (Puxi T9s) to obtain the absorption peak wavelength. • 3. The absorbance of the maximum absorption peak divided by the amount of substance concentration is the molar extinction coefficient of the compound. • 4. The emission spectrum of the solution was measured by using a fluorescent spectroscope (Hitachi, F-4700 FL Spectrophotometer) to obtain the emission peak wavelength.
(§1) The extinction coefficients of the compounds and their absorption and emission peaks in the solution and film are shown in Table 3.

[2] = Absorption and emission spectrum in spin-coated film; details: for Red shift of the spectrum in the film relative to the solution: film vs toluene solution; for Absorption peak of the film / Emission peak of the film: spin-coated film on glass
Method: The Absorption and emission spectrums of the compounds in the film were determined as follows: • 1. The compound with a certain concentration in the toluene was prepared. • 2. The prepared toluene solution was dropped onto a clean glass substrate. • 3. Spin-coating, and then heating at the 80° C. for 1 min. • 4. The absorption spectrum of the film was measured by using an ultraviolet-visible spectrophotometer (Puxi T9s) to obtain the absorption peak wavelength. • 5. The emission spectrum of the film was measured by using a fluorescent spectroscope (Hitachi, F-4700 FL Spectrophotometer) to obtain the emission peak wavelength.
as §1

[3] = UV stability of compounds in toluene (absorbance decay, t80); details: for Times t80: UV LEDs 365 nm & 255 nm, 12 cm, time until absorbance decayed to 80% of initial value; for UV stability compared with the unfluorinated compound 20: UV irradiation
Method: The UV stability of the compounds were tested as follows:
The compound was dissolved in the toluene with a concentration of 1×10^5 mol/L. 3 mL solution was added to the cuvette with a lid and the lid was screwed on tightly, then the cuvette was placed in the ultraviolet-visible spectrophotometer to test the absorption spectrum, the absorbance of the maximum absorption peak was recorded as the initial value. The cuvette was placed at a distance of 12 cm from the UV LEDs (365 nm & 255 nm), irradiated for a period and tested its absorption spectrum, then continued to be irradiated after the test, and repeated until the absorbance decayed to 80% of its initial value, the time was recorded as t80.

[4] = Solubility of compounds in toluene; details: per 100 g toluene
Method: The solubility of the compounds in the toluene were determined as follows: • 1. 1000 mg toluene was placed in the transparent glass sample bottle. • 2. A certain mass of the compound was added into the toluene, and oscillated until completely dissolved. • 3. After the compound was completely dissolved, a certain mass of the compound was further added into the toluene, and oscillated. • 4. The above steps were repeated until the compound wasn't dissolved any more. • 5. The total mass of the compound added was recorded and the solubility was obtained by calculation.

SMILES	Molar extinction coefficient of the toluene solution [1] [L/mol]	Red shift of the spectrum in the film relative to the solution [2]	Solubilities(/100 g toluene) [4] [g]	further results
Cc1cccc(C)c1N(c1ccc(C(C)(C)C)cc1)c1cc(N(c2ccc(C(C)(C)C)cc2)c2c(C)cccc2C)c2ccc3c(N(c4ccc(C(C)(C)C)cc4)c4c(C)cccc4C)cc(N(c4ccc(C(C)(C)C)cc4)c4c(C)cccc4C)c4ccc1c2c43 [Compound 4]	30000	very small red shift	4.2	Times t80 [3]: 195 min
Cc1cccc(C)c1N(c1cc(C(C)(C)C)cc(C(C)(C)C)c1)c1cc(N(c2cc(C(C)(C)C)cc(C(C)(C)C)c2)c2c(C)cccc2C)c2ccc3c(N(c4cc(C(C)(C)C)cc(C(C)(C)C)c4)c4c(C)cccc4C)cc(N(c4cc(C(C)(C)C)cc(C(C)(C)C)c4)c4c(C)cccc4C)c4ccc1c2c43 [Compound 7]	56000	very small red shift	4.6	Times t80 [3]: 280 min
CC(C)c1cccc(C(C)C)c1N(c1ccc(C(C)(C)C)cc1)c1cc(N(c2ccc(C(C)(C)C)cc2)c2c(C(C)C)cccc2C(C)C)c2ccc3c(N(c4ccc(C(C)(C)C)cc4)c4c(C(C)C)cccc4C(C)C)cc(N(c4ccc(C(C)(C)C)cc4)c4c(C(C)C)cccc4C(C)C)c4ccc1c2c43 [Compound 8]	–	–	>20	–
CC(C)c1cccc(C(C)C)c1N(c1cc(C(C)(C)C)cc(C(C)(C)C)c1)c1cc(N(c2cc(C(C)(C)C)cc(C(C)(C)C)c2)c2c(C(C)C)cccc2C(C)C)c2ccc3c(N(c4cc(C(C)(C)C)cc(C(C)(C)C)c4)c4c(C(C)C)cccc4C(C)C)cc(N(c4cc(C(C)(C)C)cc(C(C)(C)C)c4)c4c(C(C)C)cccc4C(C)C)c4ccc1c2c43 [Compound 9]	–	–	>20	–
CCc1cccc(CC)c1N(c1ccc(C(C)(C)C)cc1)c1cc(N(c2ccc(C(C)(C)C)cc2)c2c(CC)cccc2CC)c2ccc3c(N(c4ccc(C(C)(C)C)cc4)c4c(CC)cccc4CC)cc(N(c4ccc(C(C)(C)C)cc4)c4c(CC)cccc4CC)c4ccc1c2c43 [Compound 11]	53000	very small red shift	25.9	Times t80 [3]: 257 min
Cc1ccccc1N(c1ccc(C(C)(C)C)cc1C)c1cc(N(c2ccccc2C)c2ccc(C(C)(C)C)cc2C)c2ccc3c(N(c4ccccc4C)c4ccc(C(C)(C)C)cc4C)cc(N(c4ccccc4C)c4ccc(C(C)(C)C)cc4C)c4ccc1c2c43 [Compound 12]	–	–	>3	–
Cc1cc2ccccc2cc1N(c1ccc(C(C)(C)C)cc1)c1cc(N(c2ccc(C(C)(C)C)cc2)c2cc3ccccc3cc2C)c2ccc3c(N(c4ccc(C(C)(C)C)cc4)c4cc5ccccc5cc4C)cc(N(c4ccc(C(C)(C)C)cc4)c4cc5ccccc5cc4C)c4ccc1c2c43 [Compound 13]	–	–	>2.5	–
Cc1cc2ccccc2c(C)c1N(c1ccc(C(C)(C)C)cc1)c1cc(N(c2ccc(C(C)(C)C)cc2)c2c(C)cc3ccccc3c2C)c2ccc3c(N(c4ccc(C(C)(C)C)cc4)c4c(C)cc5ccccc5c4C)cc(N(c4ccc(C(C)(C)C)cc4)c4c(C)cc5ccccc5c4C)c4ccc1c2c43 [Compound 14]	–	–	>2	–
Cc1cccc(C)c1N(c1ccc(C(F)(F)F)cc1)c1cc(N(c2ccc(C(F)(F)F)cc2)c2c(C)cccc2C)c2ccc3c(N(c4ccc(C(F)(F)F)cc4)c4c(C)cccc4C)cc(N(c4ccc(C(F)(F)F)cc4)c4c(C)cccc4C)c4ccc1c2c43 [Compound 15]	–	–	>4	–
Fc1ccc(N(c2ccccc2)c2cc(N(c3ccccc3)c3ccc(F)cc3)c3ccc4c(N(c5ccccc5)c5ccc(F)cc5)cc(N(c5ccccc5)c5ccc(F)cc5)c5ccc2c3c54)cc1 [Compound 16]	37000	large red shift	>1.5	Absorption peak of the toluene solution [1]: 466 nm; Emission peak of the toluene solution [1]: 493 nm; Absorption peak of the film [2]: 469 nm; Emission peak of the film [2]: 551 nm; Times t80 [3]: 227 min; UV stability compared with the unfluorinated compound 20 [3]: greatly improved
Fc1cccc(F)c1N(c1ccccc1)c1cc(N(c2ccccc2)c2c(F)cccc2F)c2ccc3c(N(c4ccccc4)c4c(F)cccc4F)cc(N(c4ccccc4)c4c(F)cccc4F)c4ccc1c2c43 [Compound 17]	18000	large red shift	>1	Absorption peak of the toluene solution [1]: 439 nm; Emission peak of the toluene solution [1]: 462 nm; Absorption peak of the film [2]: 445 nm; Emission peak of the film [2]: 496 nm; UV stability compared with the unfluorinated compound 20 [3]: greatly improved
Cc1cccc(C)c1N(c1nc(-c2ccccc2)nc(-c2ccccc2)n1)c1cc(C(C)C)c2ccc3c(N(c4nc(-c5ccccc5)nc(-c5ccccc5)n4)c4c(C)cccc4C)cc(C(C)C)c4ccc1c2c43 [Compound 18]	–	–	>1	–
Cc1cccc(C)c1N(c1ncc2ccccc2n1)c1cc(C(C)C)c2ccc3c(N(c4ncc5ccccc5n4)c4c(C)cccc4C)cc(C(C)C)c4ccc1c2c43 [Compound 19]	–	–	>1	–
CC(C)(C)c1ccc(N(c2ccccc2)c2cc(N(c3ccccc3)c3ccc(C(C)(C)C)cc3)c3ccc4c(N(c5ccccc5)c5ccc(C(C)(C)C)cc5)cc(N(c5ccccc5)c5ccc(C(C)(C)C)cc5)c5ccc2c3c54)cc1 [Compound 21]	40000	large red shift	>3	Absorption peak of the toluene solution [1]: 469 nm; Emission peak of the toluene solution [1]: 495 nm; Absorption peak of the film [2]: 472 nm; Emission peak of the film [2]: 546 nm
CCCCCCCCc1ccc(-c2cc(N(c3ccc(C(C)(C)C)cc3)c3ccc(C(C)(C)C)cc3)ccc2N(c2cc(F)c(F)c(F)c2)c2cc(N(c3cc(F)c(F)c(F)c3)c3ccc(N(c4ccc(C(C)(C)C)cc4)c4ccc(C(C)(C)C)cc4)cc3-c3ccc(CCCCCCCC)cc3)c3ccc4c(N(c5cc(F)c(F)c(F)c5)c5ccc(N(c6ccc(C(C)(C)C)cc6)c6ccc(C(C)(C)C)cc6)cc5-c5ccc(CCCCCCCC)cc5)cc(N(c5cc(F)c(F)c(F)c5)c5ccc(N(c6ccc(C(C)(C)C)cc6)c6ccc(C(C)(C)C)cc6)cc5-c5ccc(CCCCCCCC)cc5)c5ccc2c3c54)cc1 [Compound 25]	51000	very small red shift	>10	–
CC(C)(C)c1ccc2c(c1)c1cc(C(C)(C)C)cc3c1n2-c1cccc2c1B3c1cc3c4ccccc4c4ccccc4c3c3c4c5c6ccccc6c6ccccc6c5ccc4n-2c13 [Compound E2, reference compound]	48000	–	>0.7	–
CC(C)(C)c1ccc2c(c1)B1c3c(c4c5c(c3-n3c6ccc(C(C)(C)C)cc6c6cc(C(C)(C)C)cc1c63)Oc1ccc(C(C)(C)C)cc1B5c1cc(C(C)(C)C)cc3c5cc(C(C)(C)C)ccc5n-4c13)O2 [Compound E4, reference compound]	27000	–	>0.7	Absorption peak of the toluene solution [1]: 589 nm; Emission peak of the toluene solution [1]: 613 nm
